Test results from patent publication US20260258035A1, “FIVE-MEMBERED AND SIX-MEMBERED NITROGEN-CONTAINING COMPOUND, AND INTERMEDIATE, PREPARATION METHOD AND USE THEREOF” (HANGZHOU SYNRX THERAPEUTICS BIOMEDICAL TECHNOLOGY CO., LTD., priority 2022, published 2026).

What was measured:
HCC1806 = experiment: Cell viability assay (CellTiter-Glo); type: cell-based, Human; details: Homo sapiens, HCC1806, 168 h, HCC1806, 7 days, CellTiter-Glo; read-out: IC50 (nM) in cell viability assay
PARG = PARG (Homo sapiens, UniProt Q86W56); experiment: Biochemical assay (PARG, TFMU-ADPr substrate); details: PARG, TFMU-ADPr substrate
Chain of PARG (Q86W56 whole entry): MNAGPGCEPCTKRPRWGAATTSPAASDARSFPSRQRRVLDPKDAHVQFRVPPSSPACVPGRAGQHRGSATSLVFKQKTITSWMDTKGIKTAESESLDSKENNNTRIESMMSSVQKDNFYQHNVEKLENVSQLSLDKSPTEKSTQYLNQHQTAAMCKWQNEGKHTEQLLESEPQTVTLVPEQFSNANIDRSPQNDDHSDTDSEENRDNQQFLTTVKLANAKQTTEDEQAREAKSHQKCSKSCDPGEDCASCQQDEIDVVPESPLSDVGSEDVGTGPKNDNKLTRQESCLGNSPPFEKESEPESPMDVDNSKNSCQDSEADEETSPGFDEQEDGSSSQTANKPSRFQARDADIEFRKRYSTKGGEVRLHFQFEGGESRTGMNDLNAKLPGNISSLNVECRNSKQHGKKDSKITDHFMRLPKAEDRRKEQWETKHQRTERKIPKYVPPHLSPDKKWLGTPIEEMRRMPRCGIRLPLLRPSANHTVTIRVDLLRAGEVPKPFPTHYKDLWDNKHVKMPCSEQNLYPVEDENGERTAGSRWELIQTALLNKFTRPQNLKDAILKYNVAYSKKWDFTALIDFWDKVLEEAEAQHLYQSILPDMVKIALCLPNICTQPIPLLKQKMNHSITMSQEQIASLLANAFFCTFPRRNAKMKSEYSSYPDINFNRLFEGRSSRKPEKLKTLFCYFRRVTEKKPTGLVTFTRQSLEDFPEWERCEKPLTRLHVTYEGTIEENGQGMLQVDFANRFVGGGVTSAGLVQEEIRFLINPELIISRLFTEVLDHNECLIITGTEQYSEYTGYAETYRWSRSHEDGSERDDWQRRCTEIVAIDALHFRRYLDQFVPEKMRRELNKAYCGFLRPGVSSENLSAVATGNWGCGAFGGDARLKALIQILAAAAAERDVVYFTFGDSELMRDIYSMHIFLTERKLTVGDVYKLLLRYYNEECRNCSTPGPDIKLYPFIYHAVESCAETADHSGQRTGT

| Structure (SMILES) | IC50 (HCC1806) [nM] | IC50 (PARG) [nM] |
| --- | --- | --- |
| C[C@@H]1CN(c2cc(S(=O)(=O)NC3(C)COC3)cn3c(-c4nnc(C(F)F)s4)ncc23)C[C@@H](C)N1 [Example 180, 3-(5-(difluoromethyl)-1,3,4-thiadiazol-2-yl)-8-((3R,5R)-3,5-dimethylpiperazin-1-yl)-N-(3-methyloxetan-3-yl)imidazo[1,5-a]pyridine-6-sulfonamide] | 517 | 5.62 |
| C[C@H]1CN(c2cc(S(=O)(=O)NC3(C)COC3)cn3c(-c4nnc(C(F)F)s4)ncc23)CCN1 [Example 181, (S)-3-(5-(difluoromethyl)-1,3,4-thiadiazol-2-yl)-N-(3-methyloxetan-3-yl)-8-(3-methylpiperazin-1-yl)imidazo[1,5-a]pyridine-6-sulfonamide] | 151 | 1.78 |
| C[C@H]1CN(c2cc(S(=O)(=O)NC3(C)COC3)cn3c(-c4nnc(C(F)F)s4)cnc23)C[C@H](C)N1 [Example 182, 3-(5-(difluoromethyl)-1,3,4-thiadiazol-2-yl)-8-((3S,5S)-3,5-dimethylpiperazin-1-yl)-N-(3-methyloxetan-3-yl)imidazo[1,2-a]pyridine-6-sulfonamide] | 128 | 0.53 |
| [2H]C([2H])([2H])OC1(C(=O)N2CCN(c3cc(S(=O)(=O)NC4(C)COC4)cn4c(-c5nnc(C(F)(F)F)s5)ncc34)CC2)CC1 [Example 183, 8-(4-(1-(methoxy-d3)cyclopropane-1-carbonyl)piperazin-1-yl)-N-(3-methyloxetan-3-yl)-3-(5-(trifluoromethyl)-1,3,4-thiadiazol-2-yl)imidazo[1,5-a]pyridine-6-sulfonamide] | 26.8 | 0.91 |
| C[C@H]1CN(c2cc(S(=O)(=O)NC3(C)COC3)cn3c(-c4nnc(C(F)(F)F)s4)ncc23)C[C@H](C)N1 [Example 184, 8-((3S,5S)-3,5-dimethylpiperazin-1-yl)-N-(3-methyloxetan-3-yl)-3-(5-(trifluoromethyl)-1,3,4-thiadiazol-2-yl)imidazo[1,5-a]pyridine-6-sulfonamide] | 18 | 1.15 |
| CN(C)CCN(C)C(=O)N1CCN(c2cc(S(=O)(=O)NC3(C)COC3)cn3c(-c4nnc(C(F)(F)F)s4)ncc23)CC1 [Example 185, N-(2-(dimethylamino)ethyl)-N-methyl-4-(6-(N-(3-methyloxetan-3-yl)sulfamoyl)-3-(5-(trifluoromethyl)-1,3,4-thiadiazol-2-yl)imidazo[1,5-a]pyridin-8-yl)piperazine-1-carboxamide] | 797 | 4.58 |
| CC1(NS(=O)(=O)c2cc(N3CCN4C(=O)CCC4C3)c3cnc(-c4nnc(C(F)(F)F)s4)n3c2)COC1 (stereo not shown) [Example 186, N-(3-methyloxetan-3-yl)-8-(6-oxohexahydropyrrolo[1,2-a]pyrazin-2(1H)-yl)-3-(5-(trifluoromethyl)-1,3,4-thiadiazol-2-yl)imidazo[1,5-a]pyridine-6-sulfonamide] | 485 | 5.62 |
| CN(C)CCN(C)C(=O)N1CCN(c2cc(S(=O)(=O)NC3(C)COC3)cn3c(-c4nnc(C(F)F)s4)ncc23)CC1 [Example 187, 4-(3-(5-(difluoromethyl)-1,3,4-thiadiazol-2-yl)-6-(N-(3-methyloxetan-3-yl)sulfamoyl)imidazo[1,5-a]pyridin-8-yl)-N-(2-(dimethylamino)ethyl)-N-methylpiperazine-1-carboxamide] | 874 | 3.37 |
| CN(C)CCN(C)C(=O)N1CCN(c2cc(S(=O)(=O)NC3(C)COC3)cn3c(-c4nnc(C(F)F)s4)nc(Cl)c23)CC1 [Example 188, 4-(1-chloro-3-(5-(difluoromethyl)-1,3,4-thiadiazol-2-yl)-6-(N-(3-methyloxetan-3-yl)sulfamoyl)imidazo[1,5-a]pyridin-8-yl)-N-(2-(dimethylamino)ethyl)-N-methylpiperazine-1-carboxamide] | 85 | 0.71 |
| C[C@H]1CN(c2cc(S(=O)(=O)NC3(C)COC3)cn3c(-c4nnc(C(F)(F)F)s4)cnc23)C[C@H](C)N1 [Example 189, 8-((3S,5S)-3,5-dimethylpiperazin-1-yl)-N-(3-methyloxetan-3-yl)-3-(5-(trifluoromethyl)-1,3,4-thiadiazol-2-yl)imidazo[1,2-a]pyridine-6-sulfonamide] | 112 | 3.55 |
| CC1(NS(=O)(=O)c2cc(N3CCN[C@H](CF)C3)c3cnc(-c4nnc(C(F)F)s4)n3c2)COC1 [Example 191, (S)-3-(5-(difluoromethyl)-1,3,4-thiadiazol-2-yl)-8-(3-(fluoromethyl)piperazin-1-yl)-N-(3-methyloxetan-3-yl)imidazo[1,5-a]pyridine-6-sulfonamide] | 723 | 32 |
| COC1(C(=O)N2CCN(c3cc(S(=O)(=O)NC4(C#N)CC4)cn4c(-c5nnc(C(F)F)s5)ncc34)CC2)CC1 [Example 192, N-(1-cyanocyclopropyl)-3-(5-(difluoromethyl)-1,3,4-thiadiazol-2-yl)-8-(4-(1-methoxycyclopropane-1-carbonyl)piperazin-1-yl)imidazo[1,5-a]pyridine-6-sulfonamide] | 30 | 0.83 |
| COC1(C(=O)N2CCN(c3cc(S(=O)(=O)NC4CC4)cn4c(-c5nnc(C(F)(F)F)s5)ncc34)CC2)CC1 [Example 194, N-cyclopropyl-8-(4-(1-methoxycyclopropane-1-carbonyl)piperazin-1-yl)-3-(5-(trifluoromethyl)-1,3,4-thiadiazol-2-yl)imidazo[1,5-a]pyridine-6-sulfonamide] | 84.8 | 3.21 |
| COC1(C(=O)N2CCN(c3c(F)c(S(=O)(=O)NC4CC4)cn4c(-c5nnc(C(F)(F)F)s5)ncc34)CC2)CC1 [Example 195, N-cyclopropyl-7-fluoro-8-(4-(1-methoxycyclopropane-1-carbonyl)piperazin-1-yl)-3-(5-(trifluoromethyl)-1,3,4-thiadiazol-2-yl)imidazo[1,5-a]pyridine-6-sulfonamide] | 666 | 5.62 |
| COC1(C(=O)N2CCN(c3cc(S(=O)(=O)NC4(C)CC4)cn4c(-c5nnc(C(F)F)s5)ncc34)CC2)CC1 [Example 196, 3-(5-(difluoromethyl)-1,3,4-thiadiazol-2-yl)-8-(4-(1-methoxycyclopropane-1-carbonyl)piperazin-1-yl)-N-(1-methylcyclopropyl)imidazo[1,5-a]pyridine-6-sulfonamide] | 6.34 | < 0.1 |

Now from value to compound:

| IC50 (HCC1806) [nM] | IC50 (PARG) [nM] | Structure (SMILES) |
| --- | --- | --- |
| 6.58 | 0.19 | COC1(C(=O)N2CCN(c3cc(S(=O)(=O)NC4(C)CC4)cn4c(-c5nnc(C(F)F)s5)ncc34)C[C@H]2C)CC1 [Example 197, (R)-3-(5-(difluoromethyl)-1,3,4-thiadiazol-2-yl)-8-(4-(1-methoxycyclopropane-1-carbonyl)-3-methylpiperazin-1-yl)-N-(1-methylcyclopropyl)imidazo[1,5-a]pyridine-6-sulfonamide] |
| 27.8 | 0.66 | COC1(C(=O)N2CCN(c3c(F)c(S(=O)(=O)NC4(C)CC4)cn4c(-c5nnc(C(F)F)s5)ncc34)CC2)CC1 [Example 198, 3-(5-(difluoromethyl)-1,3,4-thiadiazol-2-yl)-7-fluoro-8-(4-(1-methoxycyclopropane-1-carbonyl)piperazin-1-yl)-N-(1-methylcyclopropyl)imidazo[1,5-a]pyridine-6-sulfonamide] |
| 11.5 | 0.34 | COC1(C(=O)N2CCN(c3cc(S(=O)(=O)NC4(C)CC4)cn4c(-c5nnc(C(F)(F)F)s5)nc(C#N)c34)CC2)CC1 [Example 199, 1-cyano-8-(4-(1-methoxycyclopropane-1-carbonyl)piperazin-1-yl)-N-(1-methylcyclopropyl)-3-(5-(trifluoromethyl)-1,3,4-thiadiazol-2-yl)imidazo[1,5-a]pyridine-6-sulfonamide] |
| 54.6 | 0.63 | COC1(C(=O)N2CCN(c3cc(S(=O)(=O)NC4(C)CC4)cn4c(-c5nnc(C(F)F)s5)ncc34)C[C@H]2CF)CC1 [Example 200, (S)-3-(5-(difluoromethyl)-1,3,4-thiadiazol-2-yl)-8-(3-(fluoromethyl)-4-(1-methoxycyclopropane-1-carbonyl)piperazin-1-yl)-N-(1-methylcyclopropyl)imidazo[1,5-a]pyridine-6-sulfonamide] |
| 9.06 | 0.14 | COC1(C(=O)N2CCN(c3cc(S(=O)(=O)NC4(C)CC4)cn4c(-c5nnc(C(F)F)s5)ncc34)C[C@H]2CO)CC1 [Example 201, (S)-3-(5-(difluoromethyl)-1,3,4-thiadiazol-2-yl)-8-(3-(hydroxymethyl)-4-(1-methoxycyclopropane-1-carbonyl)piperazin-1-yl)-N-(1-methylcyclopropyl)imidazo[1,5-a]pyridine-6-sulfonamide] |
| 133 | 1.16 | CC(C)OC1(C(=O)N2CCN(c3cc(S(=O)(=O)NC4(C)CC4)cn4c(-c5nnc(C(F)(F)F)s5)ncc34)CC2)CC1 [Example 202, 8-(4-(1-isopropoxycyclopropane-1-carbonyl)piperazin-1-yl)-N-(1-methylcyclopropyl)-3-(5-(trifluoromethyl)-1,3,4-thiadiazol-2-yl)imidazo[1,5-a]pyridine-6-sulfonamide] |
| 360 | 36.3 | C[C@@H]1CN(c2cc(S(=O)(=O)NC3(C#N)CC3)cn3c(-c4nnc(C(F)F)s4)cnc23)CCN1C(=O)C1(C)CC1 [Example 204, (R)-N-(1-cyanocyclopropyl)-3-(5-(difluoromethyl)-1,3,4-thiadiazol-2-yl)-8-(3-methyl-4-(1-methylcyclopropane-1-carbonyl)piperazin-1-yl)imidazo[1,2-a]pyridine-6-sulfonamide] |
| 699 | 22.9 | CC(C)C(=O)N1CCN(c2cc(S(=O)(=O)NC3(C#N)CC3)cn3c(-c4nnc(C(F)(F)F)s4)ncc23)C[C@H]1C [Example 205, (R)-N-(1-cyanocyclopropyl)-8-(4-isobutyryl-3-methylpiperazin-1-yl)-3-(5-(trifluoromethyl)-1,3,4-thiadiazol-2-yl)imidazo[1,5-a]pyridine-6-sulfonamide] |
